What all share (format): functional
Experiment [1] relates to HaCaT. Kind of experiment: Lethal dose for Proliferation of human HaCaT cells after 24 hr of treatment upon incubation for 24 h. Conditions: for CC50: read-out: LD50 (the source's name).
For experiment [2], the system named is MDCK. The experiment in a line: Lethal dose for Proliferation of […] after 24 hr of treatment upon incubation for 6 h. Conditions: Canis lupus familiaris, read-out: LD50 (the source's name).
Experiment [3] has as its system HaCaT. Kind of experiment: Lethal dose for Proliferation of human HaCaT cells after 24 hr of treatment upon incubation for 6 h. Conditions: read-out: LD50 (the source's name).

As for `CCCCCCCCCCCCCCCCCCOC[C@H](COP(=O)([O-])OCC[N+](C)(C)C)OC1OC(O)C(O)C(O)C1NC1C(=O)C(C)=C(C)C1=O` (stereo partly specified), the CC50 in experiment [1] came to 5.5 µM.
Take `CCCCCCCCCCCCCCCCCCOCC(COP(=O)([O-])OCC[N+](C)(C)C)OC` (stereo unspecified) [EDELFOSINE]: the CC50 in experiment [2] stood at 90 µM.
As to `CCCCCCCCCCCCCCCCOP(=O)([O-])OCC[N+](C)(C)C` [MILTEFOSINE], the LD10 in experiment [1] came out at 20 µmol/L. In addition, in experiment [2], the CC50 was found to be 200 µM.
Consider `CCCCCCCCCCCCCCCCCCOC[C@H](COP(=O)([O-])OCC[N+](C)(C)C)O[C@@H]1O[C@H](CO)[C@@H](O)[C@H](O)[C@H]1O`, for which, in experiment [3], the CC50 is 9 µM.
As for `CCCCCCCCCCCCCCCCCCOC[C@H](COP(=O)([O-])OCC[N+](C)(C)C)OC1OC(O)C(O)C(O)C1N` (stereo partly specified), in experiment [1], the CC50 was 30 µM.

The values above are taken from ChEMBL document CHEMBL1141129, “Glucosamine-glycerophospholipids that activate cell-matrix adhesion and migration” (2005).
